12 compounds from article PMC6630832, “3-Vinylazetidin-2-Ones: Synthesis, Antiproliferative and Tubulin Destabilizing Activity in MCF-7 and MDA-MB-231 Breast Cancer Cells” (Pharmaceuticals, 2019) can be followed below.

Series [1] has as its system human MCF-7 breast cancer cells. As to the kind of experiment: Cell viability (Alamar Blue) antiproliferative assay in MCF-7 cells. It counts as cell-based. Conditions: Homo sapiens, MCF7, 72 h, human MCF-7 breast cancer cells; 72 h; mean ± SEM; read-out: Antiproliferative Activity IC50. Here is the method: (§1) The human breast carcinoma cell line MCF-7, was purchased from the European Collection of Animal Cell Cultures (ECACC) and was cultured in Eagle’s minimum essential medium with 10% fetal bovine serum, 2 mM L-glutamine and 100 μg/mL penicillin/streptomycin. The medium was supplemented with 1% non-essential amino acids. The human breast carcinoma cell line MDA-MB-231 was purchased from the European Collection of Animal Cell Cultures (ECACC). MDA-MB-231 cells were maintained in Dulbecco’s modified Eagle’s medium (DMEM) supplemeted with 10% (v/v) fetal bovine serum, 2 mM L-glutamine and 100 μg/mL penicillin/streptomycin (complete medium). All media contained 100 U/mL penicillin and 100 μg/mL streptomycin. Triple negative breast cancer Hs578T cells and its invasive variant Hs578Ts(i)8 were obtained as a kind gift from Dr. Susan McDonnell, School of Chemical and Bioprocess Engineering, University College Dublin and were cultured in Dulbecco’s Modified Eagle’s Media (DMEM) with GlutaMAX^TM-I, with the same supplement as for MDA-MB-231 cells in the absence of non-essential amino acids. HEK-293T normal epithelial embryonic kidney cells were cultured in Dulbecco’s Modified Eagle’s Medium (DMEM) with GlutaMAX^TM-I in the absence of non-essential amino acids. K562 and HL-60 cells were originally obtained from the European Collection of Cell Cultures (Salisbury, UK).The K562 cells were derived from a patient in the blast crisis stage of CML HL-60 cells were derive from a patient with acute myeloid leukaemia. Cells were cultured in RPMI-1640 Glutamax medium supplemented with 10% FCS media, and 100 μg/mL penicillin/streptomycin. Cells were maintained at 37 °C in 5% CO2 in a humidified incubator. All cells were sub-cultured three times/week (adherent cells by trypsinisation).
(§2) Cells were seeded at a density of 5 × 10^3 cells/well (MCF-7), in triplicate in 96-well plates. After 24 h, cells were then treated with either medium alone, vehicle [1% ethanol (v/v)] or with serial dilutions of CA-4 or β-lactam analogue. Cell viability for MCF-7 and MDA-MB-231 was analysed using the Alamar Blue assay (Invitrogen Corp, Thermo Fisher Scientific, 168 Third Avenue, Waltham, MA, USA) according to the manufacturer’s instructions. After 72 h, Alamar Blue [10% (v/v)] was added to each well and plates were incubated for 3–5 h at 37 °C in the dark. Fluorescence was read using a 96-well fluorimeter with excitation at 530 nm and emission at 590 nm. Results were expressed as percentage viability relative to vehicle control (100%). Dose response curves were plotted and IC50 values (concentration of drug resulting in 50% reduction in cell survival) were obtained using the commercial software package Prism (GraphPad Software, Inc., 2365 Northside, Suite 560, San Diego, CA, USA). Experiments were performed in triplicate on at least three separate occasions.

Series [2] deals with human MDA-MB-231 breast cancer cells. The experiment in a line: Cell viability (Alamar Blue) antiproliferative assay in MDA-MB-231 cells. In kind it is cell-based. The note with it: mean ± SEM. Here is the method: as §1, §2
In general terms: Resazurin is reduced to fluorescent resorufin, in cell work by metabolically active cells.

The subject of series [3] is MCF-7 cells. As to the kind of experiment: Lactate dehydrogenase (LDH) assay for cytotoxicity. It counts as cell-based. The note with it: Homo sapiens, MCF7, 72 h, read-out: cell death (LDH assay). The method, then: Cytotoxicity was determined using the CytoTox 96 non-radioactive cytotoxicity assay (Promega Corporation; 2800 Woods Hollow Road, Madison, WI, USA) following the manufacturer’s protocol. Briefly, MCF-7 cells were seeded in 96-well plates, incubated for 24 hr and then treated with test compounds (7d, 7h, 7i, 7q, 7r, 7u, 7t, 10d, 10f, 12) as described in the cell viability assay above. After 72 h, 20 μL of ‘lysis solution (10X)’ was added to control wells and the plate was incubated for a further 1 hr to ensure 100% death. 50 μL of supernatant was carefully removed from each well and transferred to a new 96-well plate. 50 μL of reconstituted ‘substrate mix’ was added and the plate was placed in the dark at room temperature for 30 min. After this period, 50 μL of ‘stop solution’ was added to each well and the absorbance was read at a wavelength of 490 nm using a Dynatech MR5000 plate reader. The percentage cell death at 10 μM was calculated.

In series [4] the target is T1, purified bovine tubulin (Bos taurus, UniProt P81947+Q6B856).
T1 construct: Purified (>99%) bovine brain tubulin (3 mg/mL); purchased Cytoskeleton Inc. BK006; host or cells: bovine brain (tissue-purified)
As to the kind of experiment: Tubulin polymerization assay. It counts as biochemical. Conditions: 10 μM; for vmax of tubulin polymerization: absorbance at 340 nm, 37 °C. The method, then:
The assembly of purified bovine tubulin was monitored using a kit, BK006, purchased from Cytoskeleton Inc., 1830 S Acoma St, Denver, CO, 80223, USA.. The assay was carried out in accordance with the manufacturer’s instructions in the tubulin polymerisation assay kit manual using the standard assay conditions. The values reported represent the average values from two independent assays. Purified (>99%) bovine brain tubulin (3 mg/mL) in a buffer consisting of 80 mM PIPES (pH 6.9), 0.5 mM EGTA, 2 mM MgCl2, 1 mM GTP and 10% glycerol was incubated at 37 °C in the presence of either vehicle (2% (v/v) ddH2O) or compounds 7h, 7i, 7s, 7t (initially 10 µM in EtOH); CA-4 and Paclitaxel were used as controls. Light is scattered proportionally to the concentration of polymerised microtubules in the assay. Therefore, tubulin assembly was monitored turbidimetrically at 340 nm at 37 °C in a Spectramax 340 PC spectrophotometer (Molecular Devices, 3860 N 1st St, San Jose, CA, USA). The absorbance was measured at 30 s intervals for 60 min.

Series [5] has as its system NCI 60 cell line panel. The experiment in a line: NCI60 cell line screen (SRB assay), whole panel or sub-panels. It counts as cell-based. The note with it: mean over the total NCI 60 cell line panel. From the text:
The results are summarized in Tables S3–S5, Supplementary Information.
Table S5: NCI 60 cell line mean screening results for selected compounds NCI Ref. Compound GI50 TGI LC50 […]
a GI50 and LC50 are the mean concentrations required to inhibit the growth and kill 50 % of the cells over the total NCI 60 cell line panel in the assay respectively. […]
over the total NCI 60 cell line panel.
Background: In SRB staining, fixed cells bind dye roughly in proportion to their protein.

The subject of series [6] is microtubule network of MCF-7 cells. As to the kind of experiment: Immunofluorescence microscopy. Conditions: 1 μM, 16 h. In kind it is cell-based, human. Here is the method:
Confocal microscopy was used to study the effects of drug treatment on MCF-7 cytoskeleton. For immunofluorescence, MCF-7 cells were seeded at 1 × 10^5 cells/mL on eight chamber glass slides (BD Biosciences, 2350 Qume Dr, San Jose, CA, USA). Cells were either untreated or treated with vehicle [1% ethanol (v/v)], paclitaxel (1 μM), combretastatin A-4 (100 nM) or compound 7s (100 nM) for 16 h. Following treatment cells were gently washed in PBS, fixed for 20 min with 4% paraformaldehyde in PBS and permeabilised in 0.5% Triton X-100. Following washes in PBS containing 0.1% Tween (PBST), cells were blocked in 5% bovine serum albumin diluted in PBST. Cells were then incubated with mouse monoclonal anti-α-tubulin−FITC antibody (clone DM1A) (Sigma-Aldrich, 2033 Westport Center Dr, St. Louis, MO, USA) (1:100) for 2 h at room temperature. Following washes in PBST, cells were incubated with Alexa Fluor 488 dye (1:450) for 1 h at room temperature. Following washes in PBST, the cells were mounted in Ultra Cruz Mounting Media (Santa Cruz Biotechnology Inc., 10410 Finnell Street, Dallas, TX, USA) containing 4,6-diamino-2-phenolindol dihydrochloride (DAPI). Images were captured by Leica SP8 confocal microscopy with Leica application suite X software (Leica Microsystems CMS GmbH Am Friedensplatz 3 D-68165 Mannheim, Germany). All images in each experiment were collected on the same day using identical parameters. Experiments were performed on three independent occasions.

T1 sequence (Q6B856 whole entry): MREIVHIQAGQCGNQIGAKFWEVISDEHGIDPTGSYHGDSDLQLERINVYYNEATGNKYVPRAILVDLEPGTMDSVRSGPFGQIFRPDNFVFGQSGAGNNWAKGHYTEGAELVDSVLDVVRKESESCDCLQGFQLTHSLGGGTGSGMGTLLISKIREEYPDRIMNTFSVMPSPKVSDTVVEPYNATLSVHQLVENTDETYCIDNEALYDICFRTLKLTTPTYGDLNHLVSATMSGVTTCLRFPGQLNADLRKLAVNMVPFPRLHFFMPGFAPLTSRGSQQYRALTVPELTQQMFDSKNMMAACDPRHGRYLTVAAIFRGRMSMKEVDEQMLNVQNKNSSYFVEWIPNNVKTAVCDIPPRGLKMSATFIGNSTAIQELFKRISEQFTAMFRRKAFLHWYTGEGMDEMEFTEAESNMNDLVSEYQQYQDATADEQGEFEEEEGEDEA
T1 sequence (P81947 whole entry): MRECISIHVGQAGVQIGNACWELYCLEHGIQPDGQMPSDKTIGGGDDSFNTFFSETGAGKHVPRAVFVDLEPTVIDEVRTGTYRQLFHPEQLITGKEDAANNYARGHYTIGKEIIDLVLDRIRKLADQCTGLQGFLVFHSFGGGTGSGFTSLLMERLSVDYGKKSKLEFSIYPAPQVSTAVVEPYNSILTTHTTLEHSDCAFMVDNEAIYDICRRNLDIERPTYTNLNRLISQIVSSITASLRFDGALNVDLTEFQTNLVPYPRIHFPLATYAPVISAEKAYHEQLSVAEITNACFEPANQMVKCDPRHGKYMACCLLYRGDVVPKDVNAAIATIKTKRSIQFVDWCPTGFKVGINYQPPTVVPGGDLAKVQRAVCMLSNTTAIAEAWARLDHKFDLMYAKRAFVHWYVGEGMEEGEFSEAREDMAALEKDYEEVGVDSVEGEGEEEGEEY

A word on the IC50: it is the concentration at which inhibition is half-maximal. Usually melting point stands for the temperature of the solid-liquid transition. The compound `C=CC1C(=O)N(c2cc(OC)c(OC)c(OC)c2)C1c1ccc(Cl)cc1` (centres unmarked) [Compound 7b, 4-(4-Chlorophenyl)-1-(3,4,5-trimethoxyphenyl)-3-vinylazetidin-2-one] yielded a melting point of 104 °C. The IC50 in series [1] worked out at 690 ± 110 nM. In addition, half-maximal inhibition in series [2] (IC50) was put at 191 ± 16 nM.
Turning to `C=CC1C(=O)N(c2cc(OC)c(OC)c(OC)c2)C1c1ccc([N+](=O)[O-])cc1` (centres unmarked) [Compound 7d, 4-(4-Nitrophenyl)-1-(3,4,5-trimethoxyphenyl)-3-vinylazetidin-2-one], the IC50 in series [1] is 3830 ± 530 nM. For the same compound, the cytotoxicity at 10 µM in series [3] is 7.2%.
For `C=CC1C(=O)N(c2cc(OC)c(OC)c(OC)c2)C1c1ccc(OCC)cc1` (centres unmarked) [Compound 7i, 4-(4-Ethoxyphenyl)-1-(3,4,5-trimethoxyphenyl)-3-vinylazetidin-2-one], the IC50 in series [1] was determined as 37 ± 3.3 nM; in series [2], 61 ± 7 nM. For the same compound, the cytotoxicity at 10 µM in series [3] amounted to 8.5%. Further, in series [4], the “vmax of tubulin polymerization” value is 3.84 mOD/min. Besides, the “fold reduction in vmax of tubulin polymerization” value in series [4] (with reference to ethanol control) came to 2.19 fold.
For `C=CC1C(=O)N(c2cc(OC)c(OC)c(OC)c2)C1c1ccc2ccccc2c1` (centres unmarked) [Compound 7n, 4-Naphthalen-2-yl-1-(3,4,5-trimethoxyphenyl)-3-vinylazetidin-2-one], the melting point lay within 145 to 146 °C. Moreover, in series [1], the IC50 came to 68 ± 10 nM. This compound returned an IC50 in series [2] of 77 ± 9 nM.
Turning to `C=CC1C(=O)N(c2cc(OC)c(OC)c(OC)c2)C1c1ccc(C#N)cc1` (centres unmarked) [Compound 7q, 4-[4-Oxo-1-(3,4,5-trimethoxyphenyl)-3-vinyl-azetidin-2-yl]benzonitrile], the half-maximal inhibitory concentration (IC50) in series [1] is 6250 ± 5050 nM. In addition, in series [3], the cytotoxicity at 10 µM stood at 4.5%.
For `C=CC1C(=O)N(c2cc(OC)c(OC)c(OC)c2)C1c1ccc(SC)cc1` (centres unmarked) [Compound 7r, 4-(4-Methylsulfanylphenyl)-1-(3,4,5-trimethoxyphenyl)-3-vinylazetidin-2-one] the same measures were 51 ± 1 nM and 4.5%.
Consider `C=CC1C(=O)N(c2cc(OC)cc(OC)c2)C1c1ccc(OC)cc1` (centres unmarked) [Compound 7u, 1-(3,5-Dimethoxyphenyl)-4-(4-methoxyphenyl)-3-vinylazetidin-2-one], for which the IC50 in series [1] came out at 170 ± 70 nM. Besides, in series [3], the cytotoxicity at 10 µM was 3.5%.
Consider `COc1ccc(C2C(C(C)(C)O)C(=O)N2c2cc(OC)c(OC)c(OC)c2)cc1O` (centres unmarked) [Compound 10d, 4-(3-Hydroxy-4-methoxyphenyl)-3-(1-hydroxy-1-methylethyl)-1-(3,4,5-trimethoxy-phenyl)azetidin-2-one], for which the IC50 in series [1] was determined as 544 ± 310 nM. In series [3], the cytotoxicity at 10 µM came out at 9.8%.
`COc1ccc(C2C(C(O)C=Cc3ccccc3)C(=O)N2c2cc(OC)c(OC)c(OC)c2)cc1O` (centres unmarked) [Compound 10f, 4-(3-Hydroxy-4-methoxy-phenyl)-3-(1-hydroxy-3-phenyl-allyl)-1-(3,4,5-trimethoxy-phenyl)-azetidin-2-one]: the IC50 in series [1] turned out to be 46 ± 41 nM. Further, in series [3], the cytotoxicity at 10 µM worked out at 7.6%.
On the same counts, the results for `CC=C1C(=O)N(c2cc(OC)c(OC)c(OC)c2)C1c1ccc(OC)c(O)c1` (centres unmarked) [Compound 12, 3-Ethylidene-4-(3-hydroxy-4-methoxy-phenyl)-1-(3,4,5-trimethoxy-phenyl)-azetidin-2-one] are 502 ± 212 nM and 8.4%.
A word on the GI50: it is the concentration at which growth is held to half of that of the control. As to `COc1ccc(C2CC(=O)N2c2cc(OC)c(OC)c(OC)c2)cc1OP(=O)(O)O` (centres unmarked) [Compound 17a, 2-Methoxy-5-(1-(3,4,5-trimethoxyphenyl)-4-oxoazetidin-2-yl)phenyl dihydrogen phosphate], the IC50 in series [1] was 22 ± 1.5 nM; in series [2] it was 30 ± 4 nM. Moreover, the “TGI (mean)” value in series [5] is 39800 nM. For the same compound, the GI50 in series [5] (read-out: GI50 (mean)) came out at 141 nM. For the same compound, in series [5] (read-out: LC50 (mean)), the CC50 amounted to 87100 nM.
For the compound `CC(=O)O[C@H]1C(=O)[C@@]2(C)[C@H]([C@H](OC(=O)c3ccccc3)[C@]3(O)C[C@H](OC(=O)[C@H](O)[C@@H](NC(=O)c4ccccc4)c4ccccc4)C(C)=C1C3(C)C)[C@]1(OC(C)=O)CO[C@@H]1C[C@@H]2O` [paclitaxel, reference compound], in series [4], the “vmax of tubulin polymerization” value was determined as 89.4 mOD/min. For the same compound, the “effect on microtubule network” value in series [6] was “Formation of microtubule bundles and pseudo asters”.
